Consider 2 compounds from patent US20220133842A1 (priority 2019, published 2022).

Like-named read-outs stand apart in the source and are kept apart here.

Data set [1] relates to human or porcine epithelial cells.

In the data set on Caco-2 cells (human), `Cc1ncc([N+](=O)[O-])n1CCO` [Metronidazole] showed an Apical fraction of 80.2%, a Basal fraction of 12.9% and an Intracellular fraction of 12.7%. In the data set with T84 cells (human), this compound gave an Apical fraction of 71.3%, a Basal fraction of 9.7% and an Intracellular fraction of 19.0%. In the data set with IPEC-J2 cells (pig), the Apical fraction was determined as 84.0%, the Basal fraction turned out to be 7.1% and the Intracellular fraction is listed as 8.9%.

With `CO/C1=C\C(C)=C\[C@@H](C)[C@@H](O)[C@@H](C)C/C(C)=C/C=C/[C@H](OC)[C@@H]([C@@H](C)[C@@H](O)[C@H](C)[C@@]2(O)C[C@@H](O)[C@H](C)[C@@H](C(C)C)O2)OC1=O` [Bafilomycin A1], the Apical fraction with Caco-2 cells was 0.1%; in the data set on T84 cells, 2.5%; with IPEC-J2 cells, 0.1%. The Basal fraction in the data set on Caco-2 cells was 22.5%; with T84 cells it was 30.5%; with IPEC-J2 cells, 28.1%. Moreover, the Intracellular fraction with Caco-2 cells is given as 77.4%; in the data set with T84 cells it was 68.0%; in the data set with IPEC-J2 cells it was 71.8%. Further, the intracellular accumulation in data set [1] is recorded as 19.5-77.4 % of the initial dose.
